What was measured:
[1] = system: systemic scleroderma; settings: known preparations; cited from earlier work
[2] = cited from earlier work
[3] = system: systemic scleroderma; test: clinical treatment of systemic scleroderma; assay type: in vivo, patients
Experimental: (§1) The method of treatment consists in oral administration of the proposed preparation in 0.1 to 0.2 g doses in tablet form […], or in the form of a 5% solution for injections with 5 ml doses once a day. The daily dose shall not be over 0.6 g per patient.
Five patients were treated for systemic scleroderma. […] One of these patients, following a 1.5 year course of treatment, resumed work after a three-year interval caused by the disease.

[4] = chronic toxicity test, daily doses for three months, white rats; assay type: in vivo; settings: for Index of anti-toxic function of the liver (quantity of isolated benzoic acid): P = 0.05
Experimental: […] Each dose was investigated in 20 animals (10 males and 10 females). Twenty rats served as controls. Changes in weight were recorded, the general status and behavior were observed, the peripheral blood picture was examined (hemoglobin, erythrocytes, leukocytes, thrombocytes, the leukocytary formula). For determining the functional state of the liver, kidneys, the pancreas, some biochemical indices of the urine (albumin, sugar, bile pigments) and the blood (sugar, cholesterol, bilirubin, urea, alkaline phosphatase, chlorides) were examined, just as the antitoxic function of the liver.
After the end of the tests the animals were slaughtered by decapitation: part of them immediately after the administration of the preparation, part-ten days later.
The internal organs of the slaughtered animals were examined both macro- and microscopically.

[5] = acute toxicity, single dose by probe into the stomach, albino mice, 3 days observation (Litchfield and Wilcoxson); settings: mouse, in vivo, po, albino mice 16-17 g, limits in parentheses
Experimental: The proposed preparation was tested for toxicity in the acute and chronic tests. The acute toxicity of the preparation was determined in tests in albino mice (weighing 16 to 17 g) by introducing (by means of a probe into the stomach) amounts equal to 1,000 to 5,000 mg/kg of the animals body weight. Each dose was tested in five animals. Observation was continued for three days.

[6] = system: adrenal cortex; test: corticosteroid concentration in the blood of rheumatoid arthritis or systemic lupus erythematosus patients during clinical trials; assay type: in vivo; settings: regularly given
Text: Accordingly, the observed increase of the concentration of corticosteroids in the blood of rheumatoid arthritis or systemic lupus erythematosus patients, regularly given the proposed preparation during clinical trials in the above mentioned doses, testifies to its stimulating effect on the andrenal cortex.

[7] = system: rheumatoid arthritis; test: clinical trial in patients with rheumatoid arthritis; assay type: in vivo
Experimental: as §1
The main group (69 persons) consisted of patients with rheumatoid arthritis in the 2nd and 3rd degree of activity.

[8] = side effects and action on lasting administration, compared with known remedies for collagenoses; assay type: in vivo
[9] = single administration by probe into the stomach to narcotized cats; assay type: in vivo
Experimental: After a 1,000 mg/kg dose, these symptoms are more pronounced.

[10] = system: systemic lupus erythematosus; test: clinical treatment of systemic lupus erythematosus; assay type: in vivo, patients
Experimental: as §1
Eight patients were treated for systemic lupus erythematosus.

[11] = system: normal fibroblasts; test: 48-hour study of effect on cell growth in a culture of normal fibroblasts from healthy donors; assay type: cell-based; settings: Fibroblast, 100-gamma per 1 ml of medium, read-out: reduction of the number of cells in the culture
Text: This fact explains to a certain degree the action mechanism of the preparation in cases of systemic scleroderma.

[12] = most of the patients, continued treatment

Compound: CC(C)Cc1ccc(C(C)C(=O)O)cc1 (stereo not shown) [Brufen]
- whether the above results are produced in systemic scleroderma [1]: not produced

Compound: CCN(CC)CCCC(C)Nc1ccnc2cc(Cl)ccc12 (stereo not shown) [Delagil]
- complications of antimalarial preparations ([2]; treatment of collagenoses of a rheumatoid nature): cause leukopenia, and also affect the acoustic and optic nerves, the liver, the myocardium

Compound: COc1ccc2c(c1)c(CC(=O)O)c(C)n2C(=O)c1ccc(Cl)cc1 [Indometacin]
- mental disorders ([2]; derivatives of indole): confused consciousness, somnolency
- ulcerogenic effect ([2]; derivatives of indole, ulceration of the stomach, esophagus, the intestine): possess an ulcerogenic effect
- whether the above results are produced in systemic scleroderma [1]: not produced

Compound: Cc1[nH]c(=O)[nH]c(=O)c1S(=O)(=O)Nc1ccc(S(=O)(=O)c2ccc(NS(=O)(=O)c3c(C)[nH]c(=O)[nH]c3=O)cc2)cc1 [preparation, p,p-/2,4-dioxy-6-methyl pyrimidinyl-5-sulfonamino/diphenyl sulfone]
- reduction of skin induration, flexion contracture of the hand and sensation of skin tension ([3]; five patients): All of them manifested a reduction
- patients who resumed work ([3]; of five patients, 1.5 year course, after a three-year interval): One
- Index of anti-toxic function of the liver (quantity of isolated benzoic acid) ([4]; females, after 3 months of 100 mg/kg oral doses (controls 10.1±5.1)): 10.9±2.2
- Index of anti-toxic function of the liver (quantity of isolated benzoic acid) ([4]; males, after 3 months of 100 mg/kg oral doses (controls 6.68±0.33)): 6.5±1.14
- fattiness at post mortem examination ([4]; rat, in vivo): good fattiness
- macro- and microscopic examination of organs ([4]; rat, in vivo): no pathological changes
- weight of thyroid gland, testes, spleen and adrenal glands versus control group ([4]; rat, in vivo): did not differ
- LD50 at 72 h [5]: 2600 mg/kg
- concentration of corticosteroids in the blood [6]: increase
- articular index after treatment, average ([7]; 61 patients, from 46-48 points): 16-20 points
- gravest patients who became capable of taking care of themselves unaided ([7]; administration for 1.5 to 2 years, three bed-ridden for 3 to 5 years): Eight
- first compression force after treatment, average ([7]; all the patients, from 14.4±1.7 kgf): 22.0±2.1 kgf
- corticosteroid content in the blood ([7]; due to the increasing activity of the 11-oxicorticosteroids): increase
- patients with articular index without change ([7]; during the period of treatment): 8 patients
- patients with reduced articular index ([7]; during the period of treatment): 61 patients
- C-reactive protein after treatment ([7]; from (++++), most of the patients, continued treatment): (++) and even (+)
- patients in whom the pain syndrome disappeared ([7]; majority of patients, on the 10th to 12th day): 51
- ESR [7, 12]: reduction
- reduction of the sialic acid content of the blood [7, 12]: 0.05 optical density units
- time to beginning of improvement of therapeutic indices ([7]; not later than, after the beginning of treatment): 3 to 4 weeks
- patients in whom morning-time torpidity disappeared completely ([7]; of 69 patients): 48 patients
- patients managing on essentially reduced doses of corticosteroids ([7]; of the eight gravest patients): six
- patients who do not need corticosteroids any more ([7]; of the eight gravest patients): two
- patients with only an abatement of the pain syndrome (arthralgia) ([7]; other patients): 18 patients
- period of morning-time torpidity after treatment ([7]; other patients, shortened from 103.3±14.4 min): 41.4 ± 9.73 min
- patients with abatement of morning-time torpidity and greater scope of joint movement ([7]; out of the 69 patients): 59 patients
- leukocyte count ([7]; patients with leukopenias or leukocytoses accompanying rheumatoid arthritis): tendency towards the normalization
- pain syndrome towards the end of the first week of treatment ([7]; rheumatoid arthritis): tangibly abated
- patients in whom improvement took much longer ([7]; rheumatoid arthritis): 8 patients
- function of the adrenal cortex ([8]; as testified by rising corticosteroids content of the blood): stimulates the function of the adrenal cortex
- complications of indole derivatives (ulceration, mental disorders) ([8]; even when used for many years): does not cause such complications
- dosage of prescribed corticosteroids ([8]; in vivo): to be reduced and, in individual cases, discontinuing them altogether
- general and water-and-salt metabolic disorders ([8]; in vivo): does not cause general and water-and-salt metabolic disorders
- toxicity ([8]; in vivo): low toxicity
- complications of antimalarials (leukopenia; acoustic and optic nerves, liver, myocardium) ([8]; lasting administration (1-2 years and more)): does not cause the above-mentioned complications
- pre-existing metabolic disorders ([8]; when present): tend to normalize
- symptoms ([9]; single 500 mg/kg): unrest is observed (motorial excitation, mewing, salivation and vomiting)
- time after administration at which unrest is observed ([9]; single 500 mg/kg): 10 to 20 min
- condition on the second day after administration ([9]; single 1,000 mg/kg): returned to normal
- symptoms ([9]; single 1,000 mg/kg): these symptoms are more pronounced. There is repeated vomiting and loss of appetite
- visible changes ([9]; single 100 to 200 mg/kg): no visible changes
- complete recovery ([10]; of eight patients, intake for two years): one
- effect in the other cases on complications due to corticosteroids and quinoline preparations ([10]; other cases of eight patients): substantially alleviate the complications
- inhibition at 100 µg/mL [11]: 30%

Source: patent US4151281A, “Medicinal preparation for the treatment of collagenoses of a rheumatoid nature” (priority 1977, dated 1979)
